Data on 29 compounds can be found in patent US8637537B2, “Serine/threonine kinase inhibitors” (Genentech, Inc., priority 2011, dated 2014).

Read-outs that look alike come from different tables or passages of the source.

In assay [1] the target is T1, human recombinant GST-PAK1-KD protein (Homo sapiens, UniProt Q13153).
T1 construct: residues #249-545 of human PAK1, UniProtKP/Swiss Q13153; His6 (N); made in house; host or cells: Sf9 insect cells, pAcGP67 baculovirus expression vector
Put plainly: GST-PAK1-KD (kinase domain) biochemical assay, microfluidic mobility shift.

Assay [2] has as its system group I PAKs (PAK1-3) in EBC1 cells, MEK1 phosphorylation at S298. Nature of the assay: Cellular PAK assay: MEK1 (S298) phosphorylation in EBC1 cells, HTRF. To be noted: Homo sapiens, EBC-1, 2 h treatment, Example 66. In kind it is cell-based. How it is done: Group I PAKs (PAK1-3) are activated upon binding to the Rho GTPases, Rac1 and Cdc42. […] The inhibition of group I PAKs in EBC1 cells is assessed by detecting changes in the level of MEK1 phosphorylation at S298 using homogenous time-resolved fluorescence (HTRF). […] Following inhibitor treatment, cells were lysed with 25 μL of 1× cellular kinase lysis buffer (Cisbio) containing 1× cellular kinase blocking reagent (Cisbio). Cellular lysis was carried out at 4° C. for 2 h with constant shaking before lysate (16 μL) was transferred to white 384-well ProxiPlates™ (Perkin Elmer).

[3] abbreviates: GST-PAK1-KD Inhibition Assay - Example 65, read-out: PAK1 inhibition Ki.
Where [4] appears, read: Table I, PAK1 Ki class, read-out: Ki.
The mark [5] stands for this setting: Table II, PAK1 Ki class, read-out: Ki.

What is called Ki is the dissociation constant of the complex between target and ligand, obtained from inhibition or displacement. The term IC50 denotes the point on the concentration scale where inhibition reaches its midpoint.

T1 sequence (Q13153 249-545): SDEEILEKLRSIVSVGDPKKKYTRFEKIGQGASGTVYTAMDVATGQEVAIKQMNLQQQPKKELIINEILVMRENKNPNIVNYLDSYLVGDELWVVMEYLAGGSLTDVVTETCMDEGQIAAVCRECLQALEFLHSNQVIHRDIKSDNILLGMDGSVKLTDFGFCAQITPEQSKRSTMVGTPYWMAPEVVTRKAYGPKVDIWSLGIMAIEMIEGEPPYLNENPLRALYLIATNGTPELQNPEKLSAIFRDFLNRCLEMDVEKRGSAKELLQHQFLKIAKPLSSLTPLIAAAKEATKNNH

Take `Cc1cc(Nc2cc(C3CC3)[nH]n2)nc(N[C@@H](C)c2ccc3[nH]ccc3c2)n1` [I-7, (S)—N^2-(1-(1H-indol-5-yl)ethyl)-N^4-(5-cyclopropyl-1H-pyrazol-3-yl)-6-methylpyrimidine-2,4-diamine]: the Ki is 13.5 nM in assay [1] (setting [3]) and under 50 nM in assay [1] (setting [4]). 212 nM corresponded to half-maximal inhibition in assay [2] (IC50).
In the case of `C[C@H](Nc1nccc(Nc2cc(C3CC3)[nH]n2)n1)c1ccc2[nH]ccc2c1` [I-8, (S)—N^2-(1-(1H-indol-5-yl)ethyl)-N^4-(5-cyclopropyl-1H-pyrazol-3-yl)pyrimidine-2,4-diamine], the Ki in assay [1] (setting [3]) was 15.1 nM; in assay [1] (Ki, Table I, PAK1 Ki class), under 50 nM. Moreover, inhibition in assay [2] was half-maximal at 133 nM (IC50).
As for `FC(F)(F)c1cc(Nc2cc(C3CC3)[nH]n2)nc(NCc2ccc3[nH]cnc3c2)n1` [I-11, N^2-((1H-benzo[d]imidazol-5-yl)methyl)-N^4-(5-cyclopropyl-1H-pyrazol-3-yl)-6-(trifluoromethyl)pyrimidine-2,4-diamine], the Ki in assay [1] (setting [3]) was 33 nM; in assay [1] (setting [4]), under 50 nM. In assay [2], this compound gave an IC50 of 917 nM.
`CCN(Cc1cc(F)cc2[nH]ncc12)c1ncc(F)c(Nc2cc(C3CC3)[nH]n2)n1` [II-85, N^4-(5-cyclopropyl-1H-pyrazol-3-yl)-N^2-ethyl-5-fluoro-N^2-((6-fluoro-1H-indazol-4-yl)methyl)pyrimidine-2,4-diamine]: the Ki in assay [1] (setting [5]) was under 50 nM.
With `CN(C)CCN(Cc1cc(F)cc2[nH]ncc12)c1ncc(F)c(Nc2cc(C3CC3)[nH]n2)n1` [II-86, N^4-(5-cyclopropyl-1H-pyrazol-3-yl)-N^2-(2-(dimethylamino)ethyl)-5-fluoro-N^2-((6-fluoro-1H-indazol-4-yl)methyl)pyrimidine-2,4-diamine], in assay [1] (setting [5]), the Ki is under 50 nM.
As for `CCN(Cc1cccc2[nH]ncc12)c1ncc(F)c(Nc2cc(C3CC3)[nH]n2)n1` [II-87, N^2-((1H-indazol-4-yl)methyl)-N^4-(5-cyclopropyl-1H-pyrazol-3-yl)-N^2-ethyl-5-fluoropyrimidine-2,4-diamine], in assay [1] (setting [5]), the Ki is under 50 nM.
For `CN(C)CCN(Cc1cccc2[nH]ccc12)c1nccc(Nc2cc([C@H]3C[C@@H]3F)[nH]n2)n1` [II-88, N^2-((1H-indol-4-yl)methyl)-N^2-(2-(dimethylamino)ethyl)-N^4-(5-((1R,2S)-2-fluorocyclopropyl)-1H-pyrazol-3-yl)pyrimidine-2,4-diamine], the Ki in assay [1] (setting [5]) was under 50 nM.
Same read-out and setting: as for `CN(C)CCN(Cc1cccc2[nH]ccc12)c1nccc(Nc2cc(C3CC3)[nH]n2)n1` [II-89, N^2-((1H-indol-4-yl)methyl)-N^4-(5-cyclopropyl-1H-pyrazol-3-yl)-N^2-(2-(dimethylamino)ethyl)-pyrimidine-2,4-diamine], the figure is under 50 nM; as for `c1cc(Nc2cc(C3CC3)[nH]n2)nc(N(Cc2ccc3[nH]cnc3c2)C2CCNCC2)n1` [II-90, N^2-((1H-benzo[d]imidazol-5-yl)methyl)-N^4-(5-cyclopropyl-1H-pyrazol-3-yl)-N^2-(piperidin-4-yl)pyrimidine-2,4-diamine], under 50 nM; as for `Cc1cc(Nc2nc(N(C)Cc3ccc4[nH]cnc4c3Cl)ncc2F)n[nH]1` [II-91, N^2-((4-chloro-1H-benzo[d]imidazol-5-yl)methyl)-5-fluoro-N^2-methyl-N^4-(5-methyl-1H-pyrazol-3-yl)pyrimidine-2,4-diamine], under 50 nM.
`CCN(Cc1cc(F)cc2[nH]ncc12)c1nccc(Nc2cc([C@H](C)C3CC3)[nH]n2)n1` [II-92, (R)-N^4-(5-(1-cyclopropylethyl)-1H-pyrazol-3-yl)-N^2-ethyl-N^2((6-fluoro-1H-indazol-4-yl)methyl)pyrimidine-2,4-diamine]: in assay [1] (setting [5]), the Ki is under 50 nM.
Still for that read-out and setting: as for `CN(Cc1cccc2[nH]ncc12)c1ncc(F)c(Nc2cc(C3CC3)[nH]n2)n1` [II-93, N^2-((1H-indazol-4-yl)methyl)-N^4-(5-cyclopropyl-1H-pyrazol-3-yl)-5-fluoro-N^2-methylpyrimidine-2,4-diamine], the figure is under 50 nM.
As for `CO[C@@H](C)CN(Cc1cc(F)cc2[nH]ncc12)c1nccc(Nc2cc(C3CC3)[nH]n2)n1` [II-95, (S)-N^4-(5-cyclopropyl-1H-pyrazol-3-yl)-N^2-((6-fluoro-1H-indazol-4-yl)methyl)-N^2-(2-methoxypropyl)pyrimidine-2,4-diamine], the Ki in assay [1] (setting [5]) was under 50 nM.
Take `CC(C)N(Cc1cc(F)cc2[nH]ncc12)c1ncc(F)c(Nc2cc(C3CC3)[nH]n2)n1` [II-96, N^4-(5-cyclopropyl-1H-pyrazol-3-yl)-5-fluoro-N^2-((6-fluoro-1H-indazol-4-yl)methyl)-N^2-isopropylpyrimidine-2,4-diamine]: the Ki in assay [1] (setting [5]) was under 50 nM.
The same measure, in the same setting: as for `COc1cc(CNc2ncc(F)c(Nc3cc(C4CC4)[nH]n3)n2)c2cn[nH]c2c1` [II-98, N^4-(5-cyclopropyl-1H-pyrazol-3-yl)-5-fluoro-N^2-((6-methoxy-1H-indazol-4-yl)methyl)pyrimidine-2,4-diamine], the figure is under 50 nM; as for `FC(F)(F)c1cc(CNc2nccc(Nc3cc(C4CC4)[nH]n3)n2)c2cn[nH]c2c1` [II-99, N^4-(5-Cyclopropyl-1H-pyrazol-3-yl)-N^2-((6-(trifluoromethyl)-1H-indazol-4-yl)methyl)pyrimidine-2,4-diamine], under 50 nM.
Take `CN(Cc1c(F)ccc2[nH]ncc12)c1nccc(Nc2cc(C3CC3)[nH]n2)n1` [II-100, N^4-(5-cyclopropyl-1H-pyrazol-3-yl)-N^2-((5-fluoro-1H-indazol-4-yl)methyl)-N^2-methylpyrimidine-2,4-diamine]: the Ki in assay [1] (setting [5]) was under 50 nM.
On to `Fc1cc(CNc2ncc(F)c(Nc3cc([C@@H]4CC4(F)F)[nH]n3)n2)c2cn[nH]c2c1` [II-101, (S)-N^4-(5-(2,2-difluorocyclopropyl)-1H-pyrazol-3-yl)-5-fluoro-N^2-((6-fluoro-1H-indazol-4-yl)methyl)pyrimidine-2,4-diamine], for which the Ki in assay [1] (setting [5]) fell in the range of 50 to 250 nM.
The same measure, in the same setting: as for `CN(Cc1ccc2[nH]cnc2c1)c1ncc(F)c(Nc2cc(C3CC3)[nH]n2)n1` [II-103, N^2-((1H-benzo[d]imidazol-5-yl)methyl)-N^4-(5-cyclopropyl-1H-pyrazol-3-yl)-5-fluoro-N^2-methylpyrimidine-2,4-diamine], the figure is 50 to 250 nM; as for `CCN(Cc1ccc2[nH]cnc2c1)c1ncc(F)c(Nc2cc(C3CC3)[nH]n2)n1` [II-104, N^2-((1H-benzo[d]imidazol-5-yl)methyl)-N^4-(5-cyclopropyl-1H-pyrazol-3-yl)-N^2-ethyl-5-fluoropyrimidine-2,4-diamine], 50 to 250 nM; as for `CN(C)CCN(Cc1ccc2[nH]cnc2c1)c1nccc(Nc2cc(C3CC3)[nH]n2)n1` [II-105, N^2-((1H-benzo[d]imidazol-5-yl)methyl)-N^4-(5-cyclopropyl-1H-pyrazol-3-yl)-N^2-(2-(dimethylamino)ethyl)pyrimidine-2,4-diamine], 50 to 250 nM.
As for `Fc1cc(CNc2ncc(Cl)c(Nc3cc(C4CC4)[nH]n3)n2)c2cn[nH]c2c1` [II-106, 5-chloro-N^4-(5-cyclopropyl-1H-pyrazol-3-yl)-N^2-((6-fluoro-1H-indazol-4-yl)methyl)pyrimidine-2,4-diamine], the Ki in assay [1] (setting [5]) was 50 to 250 nM.
Turning to `CCc1cc(Nc2ccnc(NCc3cc(F)cc4[nH]ncc34)n2)n[nH]1` [II-107, N^4-(5-ethyl-1H-pyrazol-3-yl)-N^2-((6-fluoro-1H-indazol-4-yl)methyl)pyrimidine-2,4-diamine], in assay [1] (setting [5]), the Ki fell in the range of 50 to 250 nM.
As to `Fc1cnc(N(Cc2ccc3[nH]cnc3c2)C2CCCC2)nc1Nc1cc(C2CC2)[nH]n1` [II-108, N^2-((1H-benzo[d]imidazol-5-yl)methyl)-N^2-cyclopentyl-N^4-(5-cyclopropyl-1H-pyrazol-3-yl)-5-fluoropyrimidine-2,4-diamine], the Ki in assay [1] (setting [5]) fell in the range of 50 to 250 nM.
Consider `Fc1cnc(NCc2cc(C(F)(F)F)cc3[nH]ncc23)nc1Nc1cc(C2CC2)[nH]n1` [II-109, N^4-(5-cyclopropyl-1H-pyrazol-3-yl)-5-fluoro-N^2-((6-(trifluoromethyl)-1H-indazol-4-yl)methyl)pyrimidine-2,4-diamine], for which the Ki in assay [1] (setting [5]) lay in the range of 250 to 1000 nM.
Consider `CN(C)CCN(Cc1cc(F)cc2[nH]ncc12)c1nccc(Nc2cc(C3CC3)[nH]n2)n1` [II-110, N^4-(5-cyclopropyl-1H-pyrazol-3-yl)-N^2-(2-(dimethylamino)ethyl)-N^2-((6-fluoro-1H-indazol-4-yl)methyl)pyrimidine-2,4-diamine], for which the Ki in assay [1] (setting [5]) was under 50 nM.
Regarding `CCN(Cc1ccc2[nH]cnc2c1Cl)c1ncc(F)c(Nc2cc([C@@H]3C[C@@H]3F)[nH]n2)n1` [II-111, N^2-((4-chloro-1H-benzo[d]imidazol-5-yl)methyl)-N^2-ethyl-5-fluoro-N^4-(5-((1S,2S)-2-fluorocyclopropyl)-1H-pyrazol-3-yl)pyrimidine-2,4-diamine], the Ki in assay [1] (setting [5]) is under 50 nM.
For `Clc1c[nH]c2cccc(CNc3nccc(Nc4cc(C5CC5)[nH]n4)n3)c12` [II-112, N^2-((3-chloro-1H--indol-4-yl)methyl)-N^4-(5-cyclopropyl-1H-pyrazol-3-yl)pyrimidine-2,4-diamine], in assay [1] (setting [5]), the Ki is under 50 nM.
On to `CN(Cc1cc2nc[nH]c2cc1F)c1nccc(Nc2cc(C3CC3)[nH]n2)n1` [II-113, N^2-((6-fluoro-1H-benzo[d]imidazol-5-yl)methyl)-N^4-(5-cyclopropyl-1H-pyrazol-3-yl)-N^2-methylpyrimidine-2,4-diamine], for which the Ki in assay [1] (setting [5]) is under 50 nM.
